Results from PubChem BioAssay (NCI).
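At the GI50, growth is halved. Definition used: TGI = concentration required for complete inhibition of growth.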

What was measured:
Assay in all cases: NCI tumour cell line growth inhibition, 384-well format; in the data active means GI50 below about 0.43 µM; inactive means the rest
M14 melanoma = test system: M14 melanoma
UACC-257 melanoma = test system: UACC-257 melanoma
COLO 205 colon = test system: COLO 205 colon
SR leukemia = test system: SR leukemia
SF-295 CNS = test system: SF-295 CNS
SF-539 CNS = test system: SF-539 CNS
TK-10 renal = test system: TK-10 renal
OVCAR-5 ovarian = test system: OVCAR-5 ovarian
HS 578T breast = test system: HS 578T breast
MCF7 breast = test system: MCF7 breast
MDA-MB-468 breast = test system: MDA-MB-468 breast
EKVX NSCLC = test system: EKVX NSCLC
T-47D breast = test system: T-47D breast
CCRF-CEM leukemia = test system: CCRF-CEM leukemia
NCI-H226 lung = test system: NCI-H226 lung
NCI-H522 lung = test system: NCI-H522 lung
NCI-H23 lung = test system: NCI-H23 lung
SNB-19 CNS = test system: SNB-19 CNS
SK-MEL-2 melanoma = test system: SK-MEL-2 melanoma
SN12C renal = test system: SN12C renal
DU-145 prostate = test system: DU-145 prostate
SNB-75 CNS = test system: SNB-75 CNS
BT-549 breast = test system: BT-549 breast
A498 renal = test system: A498 renal
ACHN renal = test system: ACHN renal
OVCAR-8 ovarian = test system: OVCAR-8 ovarian
HT29 colon = test system: HT29 colon
NCI-H322M lung = test system: NCI-H322M lung
HOP-92 NSCLC = test system: HOP-92 NSCLC
U251 glioblastoma = test system: U251 glioblastoma
SW-620 colon = test system: SW-620 colon
HOP-62 NSCLC = test system: HOP-62 NSCLC
HL-60(TB) leukemia = test system: HL-60(TB) leukemia
HCT-15 colon = test system: HCT-15 colon
UACC-62 melanoma = test system: UACC-62 melanoma
IGROV1 ovarian = test system: IGROV1 ovarian
RXF 393 renal = test system: RXF 393 renal
PC-3 prostate = test system: PC-3 prostate
RPMI-8226 leukemia = test system: RPMI-8226 leukemia
MOLT-4 leukemia = test system: MOLT-4 leukemia
HCC-2998 colon = test system: HCC-2998 colon
SK-MEL-5 melanoma = test system: SK-MEL-5 melanoma
MDA-MB-435 melanoma = test system: MDA-MB-435 melanoma
MDA-MB-231 breast = test system: MDA-MB-231 breast
NCI/ADR-RES ovarian = test system: NCI/ADR-RES ovarian
OVCAR-3 ovarian = test system: OVCAR-3 ovarian
OVCAR-4 ovarian = test system: OVCAR-4 ovarian
MALME-3M melanoma = test system: MALME-3M melanoma
SK-OV-3 ovarian = test system: SK-OV-3 ovarian
SK-MEL-28 melanoma = test system: SK-MEL-28 melanoma
NCI-H460 NSCLC = test system: NCI-H460 NSCLC
HCT-116 colon = test system: HCT-116 colon
KM12 colon = test system: KM12 colon
CAKI-1 renal = test system: CAKI-1 renal
K-562 leukemia = test system: K-562 leukemia
LOX IMVI melanoma = test system: LOX IMVI melanoma
A549 NSCLC = test system: A549 NSCLC
786-0 renal = test system: 786-0 renal
SF-268 CNS = test system: SF-268 CNS

COc1ccc(S(=O)(=O)N2CCNCC2)cc1OC
inactive: GI50 (M14 melanoma) > 100 µM | GI50 (UACC-257 melanoma) > 100 µM | GI50 (COLO 205 colon) > 100 µM | GI50 (SR leukemia) > 100 µM | GI50 (SF-295 CNS) > 100 µM | GI50 (SF-539 CNS) > 100 µM | GI50 (TK-10 renal) > 100 µM | GI50 (OVCAR-5 ovarian) > 100 µM | GI50 (HS 578T breast) > 100 µM | GI50 (MCF7 breast) > 100 µM | GI50 (MDA-MB-468 breast) > 100 µM | GI50 (EKVX NSCLC) > 100 µM | GI50 (T-47D breast) > 100 µM | GI50 (CCRF-CEM leukemia) > 100 µM | GI50 (NCI-H226 lung) > 100 µM | GI50 (NCI-H522 lung) > 100 µM | GI50 (NCI-H23 lung) > 100 µM | GI50 (SNB-19 CNS) > 100 µM | GI50 (SK-MEL-2 melanoma) > 100 µM | GI50 (SN12C renal) > 100 µM | GI50 (DU-145 prostate) > 100 µM | GI50 (SNB-75 CNS) > 100 µM | GI50 (BT-549 breast) > 100 µM | GI50 (A498 renal) > 100 µM | GI50 (ACHN renal) > 100 µM | GI50 (OVCAR-8 ovarian) > 100 µM | GI50 (HT29 colon) > 100 µM | GI50 (NCI-H322M lung) > 100 µM | GI50 (HOP-92 NSCLC) > 100 µM | GI50 (U251 glioblastoma) > 100 µM | GI50 (SW-620 colon) > 100 µM | GI50 (HOP-62 NSCLC) > 100 µM | GI50 (HL-60(TB) leukemia) > 100 µM | GI50 (HCT-15 colon) > 100 µM | GI50 (UACC-62 melanoma) > 100 µM | GI50 (IGROV1 ovarian) > 100 µM | GI50 (RXF 393 renal) > 100 µM | GI50 (PC-3 prostate) > 100 µM | GI50 (RPMI-8226 leukemia) > 100 µM | GI50 (MOLT-4 leukemia) > 100 µM | GI50 (HCC-2998 colon) > 100 µM | GI50 (SK-MEL-5 melanoma) > 100 µM | GI50 (MDA-MB-435 melanoma) > 100 µM | GI50 (MDA-MB-231 breast) > 100 µM | GI50 (NCI/ADR-RES ovarian) > 100 µM | GI50 (OVCAR-3 ovarian) > 100 µM | GI50 (OVCAR-4 ovarian) > 100 µM | GI50 (MALME-3M melanoma) > 100 µM | GI50 (SK-OV-3 ovarian) > 100 µM | GI50 (SK-MEL-28 melanoma) > 100 µM | GI50 (NCI-H460 NSCLC) > 100 µM | GI50 (HCT-116 colon) > 100 µM | GI50 (KM12 colon) > 100 µM | GI50 (CAKI-1 renal) > 100 µM | GI50 (K-562 leukemia) > 100 µM | GI50 (LOX IMVI melanoma) > 100 µM | GI50 (A549 NSCLC) > 100 µM | GI50 ([…]-0 renal) > 100 µM | GI50 (SF-268 CNS) > 100 µM
> 100 µM: TGI (M14 melanoma) | TGI (UACC-257 melanoma) | TGI (COLO 205 colon) | TGI (SR leukemia) | TGI (SF-295 CNS) | TGI (SF-539 CNS) | TGI (TK-10 renal) | TGI (OVCAR-5 ovarian) | TGI (HS 578T breast) | TGI (MCF7 breast) | TGI (MDA-MB-468 breast) | TGI (EKVX NSCLC) | TGI (T-47D breast) | TGI (CCRF-CEM leukemia) | TGI (NCI-H226 lung) | TGI (NCI-H522 lung) | TGI (NCI-H23 lung) | TGI (SNB-19 CNS) | TGI (SK-MEL-2 melanoma) | TGI (SN12C renal) | TGI (DU-145 prostate) | TGI (SNB-75 CNS) | TGI (BT-549 breast) | TGI (A498 renal) | TGI (ACHN renal) | TGI (OVCAR-8 ovarian) | TGI (HT29 colon) | TGI (NCI-H322M lung) | TGI (HOP-92 NSCLC) | TGI (U251 glioblastoma) | TGI (SW-620 colon) | TGI (HOP-62 NSCLC) | TGI (HL-60(TB) leukemia) | TGI (HCT-15 colon) | TGI (UACC-62 melanoma) | TGI (IGROV1 ovarian) | TGI (RXF 393 renal) | TGI (PC-3 prostate) | TGI (RPMI-8226 leukemia) | TGI (MOLT-4 leukemia) | TGI (HCC-2998 colon) | TGI (SK-MEL-5 melanoma) | TGI (MDA-MB-435 melanoma) | TGI (MDA-MB-231 breast) | TGI (NCI/ADR-RES ovarian) | TGI (OVCAR-3 ovarian) | TGI (OVCAR-4 ovarian) | TGI (MALME-3M melanoma) | TGI (SK-OV-3 ovarian) | TGI (SK-MEL-28 melanoma) | TGI (NCI-H460 NSCLC) | TGI (HCT-116 colon) | TGI (KM12 colon) | TGI (CAKI-1 renal) | TGI (K-562 leukemia) | TGI (LOX IMVI melanoma) | TGI (A549 NSCLC) | TGI (786-0 renal) | TGI (SF-268 CNS)
